Data reported in US6509375B1, “Method for increasing productivity in breeder hens” (Cyncron Corporation, priority 1999, dated 2003).

Tests used:
Format in all cases: in vivo
[1] = system: progeny chicks of broiler/breeder hens; assay: Feeding efficiency of progeny chicks hatched from eggs of L-DOPA treated breeder hens
Procedure: As used herein, “feeding efficiency” is defined as the ratio of the weight of feed necessary to achieve one weight unit in broiler/breeder hens.
(§1) Beginning with week 6 of treatment, eggs from treated hens were incubated and hatched. The progeny were then followed for seven to eight weeks to assess weight gain and feeding efficiency. Egg production percentage is in terms of eggs/day/100 hens. The fertility percentage is the number of eggs laid that are fertile. The hatch/fertile ratio is the number of fertile eggs that hatch divided by the number of fertile eggs laid. The chick production percentage is the product of the egg production, fertility, and hatch/fertile percentages.
The progeny chicks hatched from eggs laid by the control and L-DOPA treated breeder hens were evaluated for feeding efficiency, as described above.
Progeny Group 1: 8 week feed conversions; Week […] of treatment in broiler breeders
Progeny Group 2: 8 week feed conversions; Week 7 of treatment in broiler breeders
Progeny Group 3: 8 week feed conversions; Week 8 of treatment in broiler breeders
Progeny Group 4: 7 week feed conversions; Week 9 of treatment in broiler breeders
Progeny Group 5: 6 week feed conversions; Week 10 of treatment in broiler breeders

broiler/breeder hens = assay: Egg laying by broiler breeder hens following handling and transfer stress (Example 2); conditions: for number of eggs laid: ten hens/group, 50 mg/day/kg body weight in food
Procedure: 58 week old broiler/breeder hens were obtained from a commercial private breeder when they were laying at a rate of approximately 54% (54 eggs/day/100 hens; 38 eggs/week/10 hens). […] L-DOPA was added to the feed of the treatment group of breeder hens at a dosage of 50 mg/day/kg body weight; none was added to the feed of the control group. Egg laying was monitored daily for 9 weeks in the treated and control group.

[2] = system: Hubbard broiler/breeder hens; assay: Egg and chick production by broiler/breeder hens fed L-DOPA-supplemented diet (Example 1); conditions: for Fertility (%): eggs laid that are fertile; for Egg production (%): eggs/day/100 hens, 50 mg/kg body weight in feed; for Hatch/Fertile (%): fertile eggs that hatch / fertile eggs laid; for Chick Production (%): product of egg production, fertility and hatch/fertile percentages
Procedure: 20 Hubbard broiler/breeder hens and 4 roosters at 57 weeks of age were separated into two groups of 10 hens and two roosters. One group was fed a control (untreated) diet and the second group was fed the same diet supplemented with 50 mg/kg body weight of L-DOPA for 10 weeks. This was followed by a 3-4 week rest period and then treatment was initiated for another 3 weeks (retreatment).
as §1

**Q.** How did the “Final feeding efficiency of progeny” value ([1]; Average of progeny groups 1-5) turn out when N[C@@H](Cc1ccc(O)c(O)c1)C(=O)O [L-DOPA, L-Dihydroxyphenylalanine] was run?
**A.** 2.05 pounds of feed consumed per pound of body weight gained

**Q.** And the “Final feeding efficiency of progeny” value ([1]; Progeny Group 1: 8 week feed conversions, Week 8 of treatment in broiler breeders)?
**A.** 1.99 pounds of feed consumed per pound of body weight gained

**Q.** And the “Final feeding efficiency of progeny” value ([1]; Progeny Group 2: 8 week feed conversions, Week 7 of treatment in broiler breeders)?
**A.** 2.07 pounds of feed consumed per pound of body weight gained

**Q.** What about the “Final feeding efficiency of progeny” value ([1]; Progeny Group 3: 8 week feed conversions, Week 8 of treatment in broiler breeders) of the same compound?
**A.** 1.98 pounds of feed consumed per pound of body weight gained

**Q.** What about the “Final feeding efficiency of progeny” value ([1]; Progeny Group 4: 7 week feed conversions, Week 9 of treatment in broiler breeders) of the same compound?
**A.** 2.07 pounds of feed consumed per pound of body weight gained

**Q.** And the “Final feeding efficiency of progeny” value ([1]; Progeny Group 5: 6 week feed conversions, Week 10 of treatment in broiler breeders)?
**A.** 2.12 pounds of feed consumed per pound of body weight gained

**Q.** And the “average increase in feeding efficiency of progeny relative to control birds” value ([1]; progeny hatched from eggs during weeks 6-10 of treatment)?
**A.** 6%

**Q.** And the “number of eggs laid” value (broiler/breeder hens; Total of weeks 1-9 after handling and transfer stress)?
**A.** 327

**Q.** What about the “recovery time to achieve the same egg laying productivity rate as before the stress” value (broiler/breeder hens; control hens: two months) of the same compound?
**A.** one month

**Q.** And the “total number of eggs laid greater than that of untreated controls” value (broiler/breeder hens; nine weeks following the moving stress)?
**A.** 31%

**Q.** What about the “number of eggs laid” value (broiler/breeder hens; week 1 after handling and transfer stress) of the same compound?
**A.** 10

**Q.** What about the “number of eggs laid” value (broiler/breeder hens; week 2 after handling and transfer stress) of the same compound?
**A.** 29

**Q.** What about the “number of eggs laid” value (broiler/breeder hens; week 3 after handling and transfer stress) of the same compound?
**A.** 34

**Q.** And the “number of eggs laid” value (broiler/breeder hens; week 4 after handling and transfer stress)?
**A.** 41

**Q.** What about the “number of eggs laid” value (broiler/breeder hens; week 5 after handling and transfer stress) of the same compound?
**A.** 39

**Q.** What about the “number of eggs laid” value (broiler/breeder hens; week 6 after handling and transfer stress) of the same compound?
**A.** 50

**Q.** What about the “number of eggs laid” value (broiler/breeder hens; week 7 after handling and transfer stress) of the same compound?
**A.** 41

**Q.** And the “number of eggs laid” value (broiler/breeder hens; week 8 after handling and transfer stress)?
**A.** 40

**Q.** What about the “number of eggs laid” value (broiler/breeder hens; week 9 after handling and transfer stress) of the same compound?
**A.** 43

**Q.** And the “average percentage egg production versus control hens” value ([2]; FIG. 1, over an eight week period)?
**A.** greater

**Q.** And the “cumulative egg production versus control hens” value ([2]; FIG. 2, nine week period, L-DOPA-supplemented feed)?
**A.** significantly higher

**Q.** And the “percentage egg production versus control hens during re-treatment” value ([2]; FIG. 3, three weeks of re-treatment following three weeks without L-DOPA)?
**A.** increase

**Q.** What about the “average weekly egg production versus control hens” value ([2]; FIGS. 1 and 2, L-DOPA-supplemented feed 50 mg/kg body weight) of the same compound?
**A.** significantly higher

**Q.** What about the “higher rates of hatching of fertile eggs over eggs from control hens” value ([2]; eggs set for incubation during weeks 7, 8 and 10 of treatment) of the same compound?
**A.** 15%

**Q.** What about the “Fertility (%)” value ([2]; mean of weeks 7, 8, 10) of the same compound?
**A.** 92%

**Q.** And the “Egg production (%)” value ([2]; mean of weeks 7, 8, 10)?
**A.** 64%

**Q.** And the “Hatch/Fertile (%)” value ([2]; mean of weeks 7, 8, 10)?
**A.** 84%

**Q.** What about the “Chick Production (%)” value ([2]; mean of weeks 7, 8, 10) of the same compound?
**A.** 51%

**Q.** What about the “Fertility (%)” value ([2]; week 7 of treatment) of the same compound?
**A.** 84%

**Q.** What about the “Egg production (%)” value ([2]; week 7 of treatment) of the same compound?
**A.** 71%

**Q.** What about the “Hatch/Fertile (%)” value ([2]; week 7 of treatment) of the same compound?
**A.** 75%

**Q.** And the “Chick Production (%)” value ([2]; week 7 of treatment)?
**A.** 45%

**Q.** And the “Fertility (%)” value ([2]; week 8 of treatment)?
**A.** 100%

**Q.** And the “Egg production (%)” value ([2]; week 8 of treatment)?
**A.** 58%

**Q.** And the “Hatch/Fertile (%)” value ([2]; week 8 of treatment)?
**A.** 90%

**Q.** What about the “Chick Production (%)” value ([2]; week 8 of treatment) of the same compound?
**A.** 52%

**Q.** What about the “Fertility (%)” value ([2]; week 10 of treatment) of the same compound?
**A.** 92%

**Q.** And the “Egg production (%)” value ([2]; week 10 of treatment)?
**A.** 62%

**Q.** What about the “Hatch/Fertile (%)” value ([2]; week 10 of treatment) of the same compound?
**A.** 86%

**Q.** What about the “Chick Production (%)” value ([2]; week 10 of treatment) of the same compound?
**A.** 55%

**Q.** What about the “overall gain in chick production over the control groups” value ([2]; weeks 7, 8 and 10 of treatment) of the same compound?
**A.** 76%
